Where “and” joins values, the source holds several entries; their conditions need not be identical. Equal values may be shown once.
How the values were obtained:
[1] = test system: uterus; assay: Uterine weight in ovariectomized rats, 4-day oral dosing (Table 1); assay type: in vivo, female Sprague Dawley rats; conditions: OVX rats; for change in vivo at 0.1 mg/kg: 0.1 mg/kg oral; for change in vivo at 10 mg/kg: 10 mg/kg oral; for change in vivo at 25 mg/kg: 25 mg/kg oral
Experimental: In the examples illustrating the methods, a post-menopausal model was used in which effects of different treatments upon circulating lipids were determined.
(§1) Seventy-five day old female Sprague Dawley rats (weight range of 200 to 225 g) were obtained from Charles River Laboratories (Portage, Mich.). The animals were either bilaterally ovariectomized (OVX) or exposed to a sham surgical procedure at Charles River Laboratories, and then shipped after one week. Upon arrival, they were housed in metal hanging cages in groups of 3 or 4 per cage and had ad libitum access to food (calcium content approximately 0.5%) and water for one week. Room temperature was maintained at 22.2° ±1.7° C. with a minimum relative humidity of 40%. The photoperiod in the room was 12 hours light and 12 hours dark.
(§2) Dosing Regimen Tissue Collection. After a one week acclimation period (therefore, two weeks post-OVX) daily dosing with test compound was initiated. 17α-ethynyl estradiol or the test compound were given orally, unless otherwise stated, as a suspension in 1% carboxymethylcellulose or dissolved in 20% cyclodextrin. Animals were dosed daily for 4 days. Following the dosing regimen, animals were weighed and anesthetized with a ketamine: Xylazine (2:1, V:V) mixture and a blood sample was collected by cardiac puncture. The animals were then sacrificed by asphyxiation with CO2, the uterus was removed through a midline incision, and a wet uterine weight was determined.
(§3) Data presented in Table 1 below show comparative results among ovariectomized rats, rats treated with 17α-ethynyl estradiol (EE2; an orally available form of estrogen), and rats treated with certain compounds of the present invention. […] This uterine response to estrogen is well recognized in the art.
(§4) The data presented in Table 1 below reflects the response of 5 to 6 rats per treatment.

[2] = test system: Uterine Eosinophil Peroxidase (EPO); assay: Uterine Eosinophil Peroxidase (EPO) Assay (Table 1); assay type: in vivo, female Sprague Dawley rats; parameters: key to Uterine EPO (V. max): Vmax of absorbance increase at 450 nm, monitored over 1 min; conditions: for Uterine EPO (V. max): OVX rats, daily for 4 days
Excerpt: as §1, §2
Uterine Eosinomhil Peroxidase (EPO) Assay. Uteri were kept at 4° C. until time of enzymatic analysis. The uteri were then homogenized in 50 volumes of 50 mM Tris buffer (pH-8.0) containing 0.005% Triton X-100. Upon addition of 0.01% hydrogen peroxide and 10 mM O-phenylenediamine (final concentrations) in Tris buffer, increase in absorbance was monitored for one minute at 450 nm. The presence of eosinophils in the uterus is an indication of estrogenic activity of a compound. The maximal velocity of a 15 second interval was determined over the initial, linear portion of the reaction curve.
As is expressed in the below data, estrogenicity also was assessed by evaluating the response of eosinophil infiltration into the uterus.
as §4

[3] = test system: Serum cholesterol; assay: Serum cholesterol in ovariectomized rats, 4-day oral dosing (Table 1); assay type: in vivo, female Sprague Dawley rats; conditions: OVX rats; for inhibition in vivo at 0.1 mg/kg: 0.1 mg/kg oral; for inhibition in vivo at 25 mg/kg: 25 mg/kg oral
Excerpt: as §1, §2
(§5) Cholesterol Analysis. Blood samples were allowed to clot at room temperature for 2 hours, and serum was obtained following centrifugation for 10 minutes at 3000 rpm. Serum cholesterol was determined using a Boehringer Mannheim Diagnostics high performance cholesterol assay. Briefly the cholesterol was oxidized to cholest-4-en-3-one and hydrogen peroxide. The hydrogen peroxide was then reacted with phenol and 4-aminophenazone in the presence of peroxidase to produce a p-quinone imine dye, which was read spectrophotometrically at 500 nm. Cholesterol concentration was then calculated against a standard curve. The entire assay was automated using a Biomek Automated Workstation.
as §3, §4

[4] = test system: MCF-7 breast adenocarcinoma cells; assay: MCF-7 Proliferation Assay; assay type: cell-based; conditions: Homo sapiens, MCF7, tritiated thymidine, 48 hours
Experimental: MCF-7 breast adenocarcinoma cells (ATCC HTB 22) were maintained in MEM (minimal essential medium, phenol red-free, Sigma, St. Louis, Mo.) supplemented with 10% fetal bovine serum (FBS) (V/V), L-glutamine (2 mM), sodium pyruvate (1 mM), HEPES {(N-[2-hydroxyethyl]piperazine-N'-[2-ethanesulfonic acid]10 mM}, non-essential amino acids and bovine insulin (1 ug/mL) (maintenance medium). Ten days prior to assay, MCF-7 cells were switched to maintenance medium supplemented with 10% dextran coated charcoal stripped fetal bovine serum (DCC-FBS) assay medium) in place of 10% FBS to deplete internal stores of steroids. MCF-7 cells were removed from maintenance flasks using cell dissociation medium (Ca++/Mg++free HBSS (phenol red-free) supplemented with 10 mM HEPES and 2 mM EDTA). Cells were washed twice with assay medium and adjusted to 80,000 cells/mL. Approximately 100 μL (8,000 cells) were added to flat-bottom microculture wells (Costar 3596) and incubated at 37° C. in a 5% CO2 humidified incubator for 48 hours to allow for cell adherence and equilibration after transfer. Serial dilutions of drugs or DMSO as a diluent control were prepared in assay medium and 50 μL transferred to triplicate microcultures followed by 50 μL assay medium for a final volume of 200μ. After an additional 48 hours at 37° C. in a 5% CO2 humidified incubator, microcultures were pulsed with tritiated thymidine (1 uCi/well) for 4 hours. Cultures were terminated by freezing at -70° C. for 24 hours followed by thawing and harvesting of microcultures using a Skatron Semiautomatic Cell Harvester. Samples were counted by liquid scintillation using a Wallac BetaPlace β counter. Results in Table 4 below show the IC50 for certain compounds of the present invention.

[5] = test system: Femur (distal metaphysis); assay: Osteoporosis Test: distal femur metaphysis x-ray image / bone density (Table 2); assay type: in vivo, rats; conditions: for Femur (x-ray image) (% protect.): daily for 35 days, 6-month-old rats; for bone density, in words: ovariectomized rats, oral, 35 days
Experimental: Following the General Preparation Procedure, infra, the rats were treated daily for 35 days (6 rats per treatment group) and sacrificed by carbon dioxide asphyxiation on the 36th day. The 35 day time period was sufficient to allow maximal reduction in bone density, measured as described herein. At the time of sacrifice, the uteri were removed, dissected free of extraneous tissue, and the fluid contents were expelled before determination of wet weight in order to confirm estrogen deficiency associated with complete ovariectomy. […] The right femurs were excised and digitilized x-rays generated and analyzed by an image analysis program (NIH image) at the distal metaphysis. The proximal aspect of the tibiae from these animals were also scanned by quantitative computed tomography. In accordance with the above procedures, the compound of Example 9 and ethynyl estradiol (EE2) in 20% hydroxypropyl β-cyclodextrin were orally administered to test animals. Distal femur metaphysis data presented in Tables 2 and 3 below are the results of compound treatments compared to intact and ovariectomized test animals. The rats in the Table 2 tests were 6 months of age rather than 75 days of age (at the beginning of the tests).

[6] = test system: uterus; assay: Osteoporosis Test: uterine weight (Table 2); assay type: in vivo; conditions: daily for 35 days, 6-month-old rats
Experimental: (§6) Following the General Preparation Procedure, infra, the rats were treated daily for 35 days (6 rats per treatment group) and sacrificed by carbon dioxide asphyxiation on the 36th day. The 35 day time period was sufficient to allow maximal reduction in bone density, measured as described herein. At the time of sacrifice, the uteri were removed, dissected free of extraneous tissue, and the fluid contents were expelled before determination of wet weight in order to confirm estrogen deficiency associated with complete ovariectomy. […] In accordance with the above procedures, the compound of Example 9 and ethynyl estradiol (EE2) in 20% hydroxypropyl β-cyclodextrin were orally administered to test animals. Distal femur metaphysis data presented in Tables 2 and 3 below are the results of compound treatments compared to intact and ovariectomized test animals. The rats in the Table 2 tests were 6 months of age rather than 75 days of age (at the beginning of the tests).

[7] = test system: Serum cholesterol; assay: Osteoporosis Test: serum cholesterol (Table 2); assay type: in vivo; conditions: daily for 35 days, 6-month-old rats
Experimental: as §5
Following the General Preparation Procedure, infra, the rats were treated daily for 35 days (6 rats per treatment group) and sacrificed by carbon dioxide asphyxiation on the 36th day. The 35 day time period was sufficient to allow maximal reduction in bone density, measured as described herein. At the time of sacrifice, the uteri were removed, dissected free of extraneous tissue, and the fluid contents were expelled before determination of wet weight in order to confirm estrogen deficiency associated with complete ovariectomy.
In accordance with the above procedures, the compound of Example 9 and ethynyl estradiol (EE2) in 20% hydroxypropyl β-cyclodextrin were orally administered to test animals. Distal femur metaphysis data presented in Tables 2 and 3 below are the results of compound treatments compared to intact and ovariectomized test animals. The rats in the Table 2 tests were 6 months of age rather than 75 days of age (at the beginning of the tests).

[8] = Osteoporosis Test: body weight change (Table 2); assay type: in vivo; conditions: daily for 35 days, 6-month-old rats
Experimental: as §6

[9] = Rattus norvegicus, po, 96 h, daily for 4 days, read-out: Uterine Wt. (% inc. vs. OVX)
[10] = Rattus norvegicus, po, 96 h, daily for 4 days, read-out: Serum Cholesterol (% dec. vs. OVX)

Structure (SMILES) | change in vivo at 0.1 mg/kg [1, 9] | change in vivo at 10 mg/kg [1, 9] | change in vivo at 25 mg/kg [1, 9] | Uterine EPO (V. max) ([2]; 0.1 mg/kg oral) | Uterine EPO (V. max) ([2]; 25 mg/kg oral) | inhibition in vivo at 0.1 mg/kg [3, 10] | inhibition in vivo at 25 mg/kg [3, 10] | IC50 [4] | Femur (x-ray image) (% protect.) ([5]; 0.1 mg/kg oral) | bone density, in words [5] | Uterine Wt. (% inc. vs. OVX) ([6]; 0.1 mg/kg oral) | Serum Chol. (% dec. vs. OVX) ([7]; 0.1 mg/kg oral) | also measured
Oc1ccc(-c2ccc(-c3ccc(F)cc3)nc2-c2ccc(OCCN3CCCCC3)cc2)cc1 [Example 12, 2-[4-[2-(1-Piperidinyl)ethoxy]phenyl]-3-(4-hydroxyphenyl)-6-(4-fluorophenyl)pyridine] | 9.8% | 76.2% | 68% | 5.9 | 67.9 | 26.2% | 49.9% | 185 nM | – | – | – | – | change in vivo at 1 mg/kg ([1]; Rattus norvegicus, po, 96 h, 1 mg/kg oral, daily for 4 days, read-out: Uterine Wt. (% inc. vs. OVX)): 4.2%
C#CC1(O)CCC2C3CCc4cc(O)ccc4C3CCC21C (stereo not drawn) [EE2, 17α-ethynyl estradiol, reference compound] | – | – | – | – | – | – | – | – | 41.8% and 25.5% | prevented this loss | 128.3% and 226.1% | 73.8% and 73.6% | uterine weight, in words ([1]; oral, EE2 at 0.1 mg/kg/day): uterine weight was substantially greater than the uterine weight of ovariectomized control animals; eosinophil infiltration into the uterus, in words ([2]; ovariectomized rats): caused a substantial, expected increase in eosinophil infiltration; serum cholesterol, in words ([3]; oral, EE2 at 0.1 mg/kg/day): caused a decrease in serum cholesterol
COc1ccc(-c2ccc(-c3ccc(F)cc3)nc2-c2ccc(OCCN3CCCCC3)cc2)cc1 [Example 6, 2-[4-[2-(1-Piperidinyl)ethoxy]phenyl]-3-(4-methoxyphenyl)-6-(4-fluorophenyl)pyridine] | 9.5% | 44.2% | 69.5% | 6.6 | 22.6 | 4% | 40.8% | 470 nM | – | – | – | – | inhibition in vivo at 1 mg/kg ([3]; Rattus norvegicus, po, 96 h, 1 mg/kg oral, daily for 4 days, read-out: Serum Cholesterol (% dec. vs. OVX)): 12.3%; ED50 ([3]; Rattus norvegicus, po, 96 h, oral, daily for 4 days, dose column in mg/kg, read-out: ED50 (effective dose to dec. serum chol. by 50%)): 70 mg/kg
Cc1ccc(-c2ccc(O)cc2)c(-c2ccc(OCCN3CCCC3)cc2)n1 [Example 9, 2-[4-[2-(1-Pyrrolidinyl)ethoxy]phenyl]-3-(4-hydroxyphenyl)-6-methylpyridine] | – | 26.3% | 24.3% | – | – | – | 58.5% | – | -16.4% | elevated mean bone density in a general, dose-related manner | -11% | 33.6% | Body Wt. Change (% dec. vs. OVX) ([8]; 0.01 mg/kg oral): -5%; Body Wt. Change (% dec. vs. OVX) ([8]; 0.1 mg/kg oral): -8.2%; Body Wt. Change (% dec. vs. OVX) ([8]; 25 mg/kg oral): 6.3%; Femur (x-ray image) (% protect.) ([5]; 0.01 mg/kg oral): -11.5%; Femur (x-ray image) (% protect.) ([5]; 25 mg/kg oral): 33.3%; inhibition in vivo at 10 mg/kg ([3]; Rattus norvegicus, po, 96 h, 10 mg/kg oral, daily for 4 days, read-out: Serum Cholesterol (% dec. vs. OVX)): 49.2%; Uterine Wt. (% inc. vs. OVX) ([6]; 0.01 mg/kg oral): -3.5%; Uterine Wt. (% inc. vs. OVX) ([6]; 25 mg/kg oral): -6.8%; Serum Chol. (% dec. vs. OVX) ([7]; 0.01 mg/kg oral): 44.4%; Serum Chol. (% dec. vs. OVX) ([7]; 1 mg/kg oral): 35.4% and 54.2%; Serum Chol. (% dec. vs. OVX) ([7]; 10 mg/kg oral): 35.4% and 42.2%; Serum Chol. (% dec. vs. OVX) ([7]; 25 mg/kg oral): 19.7%

— patent publication US5672609A, “Pyridine compounds, intermediates compositions and methods of use” (Eli Lilly and Company, priority 1996, dated 1997)
